The subject of data set [1] is Mus musculus. Kind of data set: Hypouricemic activity in potassium oxonate-induced hyperuricemic Kunming mouse model assessed as decrease in serum uric acid level at 5 mg/kg, IG pre-administered via gavage twice daily for 5 times followed by potassium oxonate injection for 1 hrs prior to last dose by phosphotungstic acid method. The format is functional. The following applies: for Activity: time 5.0 day.

The species named for the next data set is Homo sapiens. Put plainly: Inhibition of uricase (unknown origin) using uric acid as substrate at 112.5 mg/L preincubated with compounds for 15 mins followed by uric acid addition.
Data set [2] relates to Mus musculus. Put plainly: Hypouricemic activity in potassium oxonate-induced hyperuricemic Kunming mouse model assessed as serum XOD level at 10 mg/kg, IG pre-administered via gavage twice daily for 5 times followed by potassium oxonate injection for 1 hrs prior to last dose. The class given is functional. As to conditions: time 5 day.
In data set [3] the test system is Mus musculus. Kind of data set: Hypouricemic activity in potassium oxonate-induced hyperuricemic Kunming mouse model assessed as serum urate level at 10 mg/kg, IG pre-administered via gavage twice daily for 5 times followed by potassium oxonate injection for 1 hrs prior to last dose by phosphotungstic acid method. The class given is functional. The following applies: time 5 day.

Data set [4] deals with Xanthine dehydrogenase/oxidase (Homo sapiens, UniProt P47989). Kind of data set: Inhibition of XOD (unknown origin) using xanthine as substrate assessed as inhibition of uric acid generation at 0.54 mg/L preincubated for 15 mins followed by xanthine addition and measured by spectrophotometric analysis relative to control.
Sequence of Xanthine dehydrogenase/oxidase (P47989 whole entry): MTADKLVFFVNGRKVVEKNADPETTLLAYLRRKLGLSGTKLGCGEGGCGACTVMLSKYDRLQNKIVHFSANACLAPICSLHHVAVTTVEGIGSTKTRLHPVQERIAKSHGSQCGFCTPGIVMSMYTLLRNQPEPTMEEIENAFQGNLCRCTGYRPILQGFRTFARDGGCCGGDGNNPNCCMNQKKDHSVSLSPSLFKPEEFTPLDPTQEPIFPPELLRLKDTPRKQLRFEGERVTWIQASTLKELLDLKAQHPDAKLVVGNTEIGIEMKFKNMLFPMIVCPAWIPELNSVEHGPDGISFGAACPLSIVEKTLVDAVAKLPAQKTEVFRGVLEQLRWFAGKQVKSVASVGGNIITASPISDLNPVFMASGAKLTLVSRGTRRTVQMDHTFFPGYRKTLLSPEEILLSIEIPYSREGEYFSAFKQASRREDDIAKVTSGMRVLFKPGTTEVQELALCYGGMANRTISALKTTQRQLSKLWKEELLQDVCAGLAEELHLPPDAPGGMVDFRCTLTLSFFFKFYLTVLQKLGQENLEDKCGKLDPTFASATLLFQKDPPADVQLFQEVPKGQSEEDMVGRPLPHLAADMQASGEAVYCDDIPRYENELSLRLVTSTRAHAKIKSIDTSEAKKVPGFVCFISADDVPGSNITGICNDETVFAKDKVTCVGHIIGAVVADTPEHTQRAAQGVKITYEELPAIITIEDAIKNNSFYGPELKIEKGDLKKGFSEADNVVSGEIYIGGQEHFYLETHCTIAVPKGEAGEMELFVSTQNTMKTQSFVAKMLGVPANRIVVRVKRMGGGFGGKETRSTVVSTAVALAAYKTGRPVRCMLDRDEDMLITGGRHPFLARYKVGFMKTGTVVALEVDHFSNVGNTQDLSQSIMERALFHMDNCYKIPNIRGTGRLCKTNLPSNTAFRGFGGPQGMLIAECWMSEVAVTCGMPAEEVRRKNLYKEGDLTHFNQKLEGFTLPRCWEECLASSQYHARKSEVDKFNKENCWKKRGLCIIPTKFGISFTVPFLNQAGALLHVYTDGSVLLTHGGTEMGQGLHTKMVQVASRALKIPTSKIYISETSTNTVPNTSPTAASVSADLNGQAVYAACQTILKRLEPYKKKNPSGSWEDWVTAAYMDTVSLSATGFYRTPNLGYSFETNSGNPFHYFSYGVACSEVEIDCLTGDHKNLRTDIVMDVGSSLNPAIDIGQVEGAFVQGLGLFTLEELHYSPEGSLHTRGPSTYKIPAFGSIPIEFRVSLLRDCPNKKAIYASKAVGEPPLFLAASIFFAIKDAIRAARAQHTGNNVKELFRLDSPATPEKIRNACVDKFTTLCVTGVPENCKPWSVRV
In data set [5] the test system is Mus musculus. Put plainly: Hypouricemic activity in potassium oxonate-induced hyperuricemic Kunming mouse model assessed as decrease in serum uric acid level at 5 mg/kg, IG pre-administered via gavage twice daily for 5 times followed by potassium oxonate injection for 1 hrs prior to last dose by phosphotungstic acid method relative to control. The class given is functional. Further details: scale not given: the % may be the effect or the level left. As to conditions: time 5 day.

Data set [6] deals with Mus musculus. Put plainly: Hypouricemic activity in potassium oxonate-induced hyperuricemic Kunming mouse model assessed as serum XDH level at 10 mg/kg, IG pre-administered via gavage twice daily for 5 times followed by potassium oxonate injection for 1 hrs prior to last dose. The class given is functional. The following applies: time 5 day.
The test system of data set [7] is Rattus norvegicus. Kind of data set: Anti-hyperuricemic activity against potassium oxonate-induced hyperuricemic Sprague-Dawley rat model assessed as fractional excretion of urate at 12.5 mg/kg, po pre-administered via gavage twice daily for 5 times followed by potassium oxonate injection for 1 hrs prior to last dose and measured after 3 hrs relative to control. The class given is functional. The following applies: time 123 hrs.

In data set [8] the test system is Rattus norvegicus. Kind of data set: Anti-hyperuricemic activity against potassium oxonate-induced hyperuricemic Sprague-Dawley rat model assessed as clearance of urate measured per body surface area of 0.0311 m2 at 12.5 mg/kg, po pre-administered via gavage twice daily for 5 times followed by potassium oxonate injection for 1 hrs prior to last dose and measured after 3 hrs. The class given is functional. The following applies: time 123 hrs.

Data set [9] relates to Rattus norvegicus. Kind of data set: Anti-hyperuricemic activity against potassium oxonate-induced hyperuricemic Sprague-Dawley rat model assessed as serum urea nitrogen level at 12.5 mg/kg, po pre-administered via gavage twice daily for 5 times followed by potassium oxonate injection for 1 hrs prior to last dose and measured after 3 hrs. The format is functional. The following applies: time 123 hrs.

In data set [10] the test system is Rattus norvegicus. Kind of data set: Anti-hyperuricemic activity against potassium oxonate-induced hyperuricemic Sprague-Dawley rat model assessed as glomerular load of urate measured per body surface area of 0.0311 m2 at 12.5 mg/kg, po pre-administered via gavage twice daily for 5 times followed by potassium oxonate injection for 1 hrs prior to last dose and measured after 3 hrs. The class given is functional. As to conditions: time 123 hrs.

Data set [11] concerns Rattus norvegicus. Kind of data set: Anti-hyperuricemic activity against potassium oxonate-induced hyperuricemic Sprague-Dawley rat model assessed as urinary urate level at 12.5 mg/kg, po pre-administered via gavage twice daily for 5 times followed by potassium oxonate injection for 1 hrs prior to last dose and measured after 3 hrs. As to conditions: time 123 hrs. The class given is functional.

Data set [12] concerns Rattus norvegicus. Put plainly: Anti-hyperuricemic activity against potassium oxonate-induced hyperuricemic Sprague-Dawley rat model assessed as urinary creatinine level at 12.5 mg/kg, po pre-administered via gavage twice daily for 5 times followed by potassium oxonate injection for 1 hrs prior to last dose and measured after 3 hrs. The class given is functional. The following applies: time 123 hrs.

Data set [13] deals with Rattus norvegicus. Kind of data set: Anti-hyperuricemic activity against potassium oxonate-induced hyperuricemic Sprague-Dawley rat model assessed as urinary urate at 12.5 mg/kg, po pre-administered via gavage twice daily for 5 times followed by potassium oxonate injection for 1 hrs prior to last dose and measured after 3 hrs. The following applies: time 123 hrs. The class given is functional.

The test system of data set [14] is Rattus norvegicus. Kind of data set: Anti-hyperuricemic activity against potassium oxonate-induced hyperuricemic Sprague-Dawley rat model assessed as serum creatinine level at 12.5 mg/kg, po pre-administered via gavage twice daily for 5 times followed by potassium oxonate injection for 1 hrs prior to last dose and measured after 3 hrs. The class given is functional. As to conditions: time 123 hrs.

Data set [15] deals with Rattus norvegicus. Kind of data set: Anti-hyperuricemic activity against potassium oxonate-induced hyperuricemic Sprague-Dawley rat model assessed as serum urate level at 12.5 mg/kg, po pre-administered via gavage twice daily for 5 times followed by potassium oxonate injection for 1 hrs prior to last dose and measured after 3 hrs. The format is functional. As to conditions: time 123 hrs.

For data set [16], the system named is Rattus norvegicus. Kind of data set: Anti-hyperuricemic activity against potassium oxonate-induced hyperuricemic Sprague-Dawley rat model assessed as excretion of urate per volume of glomerular filtration measured per body surface area of 0.0311 m2 at 12.5 mg/kg, po pre-administered via gavage twice daily for 5 times followed by potassium oxonate injection for 1 hrs prior to last dose and measured after 3 hrs. The format is functional. As to conditions: time 123 hrs.

For data set [17], the system named is Rattus norvegicus. Kind of data set: Anti-hyperuricemic activity against potassium oxonate-induced hyperuricemic Sprague-Dawley rat model assessed as urine volume at 12.5 mg/kg, po pre-administered via gavage twice daily for 5 times followed by potassium oxonate injection for 1 hrs prior to last dose and measured after 3 hrs. The following applies: time 123 hrs. The class given is functional.

In data set [18] the test system is Mus musculus. Put plainly: Anti-hyperouricemic activity in uric acid-induced hyperuricemic Kunming mouse model assessed as decrease in serum uric acid level at 25 mg/kg, IG pre-administered with uric acid for 30 mins followed by compound treatment and measured after 2 hrs by phosphotungstic acid method. The format is functional, organism-based.
The test system of data set [19] is Rattus norvegicus. Put plainly: Anti-hyperuricemic activity against potassium oxonate-induced hyperuricemic Sprague-Dawley rat model assessed as clearance of creatinine measured per body surface area of 0.0311 m2 at 12.5 mg/kg, po pre-administered via gavage twice daily for 5 times followed by potassium oxonate injection for 1 hrs prior to last dose and measured after 3 hrs. As to conditions: time 123 hrs. The format is functional.

Data set [20] in a line: Toxicity in Kunming mouse assessed as decrease in serum uric acid level at 1 mg/kg. The following applies: in vivo. The class given is organism-based.
Data set [21] has as its system Mus musculus. Put plainly: Hypouricemic activity in potassium oxonate-induced hyperuricemic Kunming mouse model assessed as decrease in serum XOD level at 1 mg/kg, IG pre-administered via gavage twice daily for 5 times followed by potassium oxonate injection for 1 hrs prior to last dose. The format is functional, organism-based. As to conditions: time 5.0 day.

Calls of active or inactive are those of the source. No cut-off for these calls is given here.

As usually defined, the inhibition is the share of the control response that was lost under treatment.

`CC(C)=CCc1c(O)cc2oc3cc(O)c(O)c(CC=C(C)C)c3c(=O)c2c1O`: the outcome with Mus musculus [1] was inactive.

Regarding `COc1c(O)cc2oc3cc4c(c(O)c3c(=O)c2c1CC=C(C)C)C=CC(C)(C)O4`, the outcome in the data set on Mus musculus [1] was inactive.

On to `O=C(O)c1nc(=O)[nH]c(=O)[nH]1`, for which the inhibition in the data set listed under Homo sapiens came to 96.5%.

In the case of `Oc1ncnc2[nH]ncc12` [ALLOPURINOL], the Activity amounted to 11.46 U/L in the data set with Mus musculus [2], 180.26 µmol/L in the data set on Mus musculus [3], 64% in the data set with Mus musculus [5] and 2.59 U/L in the data set on Mus musculus [6]. Moreover, the “serum uric acid level” value in the data set with Mus musculus [1] (time 5 day) stood at 117.86 µmol/L. The inhibition at 0.54 µg/mL in data set [4] came out at 42.7%.

For `CCc1oc2ccccc2c1C(=O)c1cc(Br)c(O)c(Br)c1` [BENZBROMARONE], the Activity in the data set on Rattus norvegicus [7] turned out to be 66%; with Rattus norvegicus [8], 8.4 mL/min; with Rattus norvegicus [9] it was 9.7 mmol/L; in the data set with Rattus norvegicus [10], 3.8 µmol/min; in the data set on Rattus norvegicus [11], 2.7 mmol/L; in the data set on Rattus norvegicus [12], 1 mmol/L. Moreover, the Activity is 392 µmol in the data set on Rattus norvegicus [13]; 56.1 µmol/L with Rattus norvegicus [14]; 258 µmol/L with Rattus norvegicus [15]; 5.3 µmol/L with Rattus norvegicus [16]; 4.6 mL with Rattus norvegicus [17]; 14.6 mL/min in the data set on Rattus norvegicus [19]. Moreover, the result in the data set with Mus musculus [18] was Active.

On to `Cc1nc(-c2ccc(OCC(C)C)c(C#N)c2)sc1C(=O)O` [FEBUXOSTAT], for which the Activity result in data set [20] is given as “Toxic”. Also, the outcome in the data set on Mus musculus [21] was Active.

These data come from ChEMBL document CHEMBL5226379, “Hypouricemic Actions of the Pericarp of Mangosteen in Vitro and in Vivo” (J Nat Prod, 2023).
